The target of one experiment is T1, human PPARα (Homo sapiens, UniProt Q07869).
T1 construct: The coding region of a human PPARα cDNA was inserted downstream of the CMV promoter; expressed in transfected cells; host or cells: Cos-7 cells, transient transfection (pcDNA3.1(−)-PPARα, pRSV-RXRα, 3xPPRE-TK-luc reporter, pRL-TK)
T1 sequence (Q07869 1-468): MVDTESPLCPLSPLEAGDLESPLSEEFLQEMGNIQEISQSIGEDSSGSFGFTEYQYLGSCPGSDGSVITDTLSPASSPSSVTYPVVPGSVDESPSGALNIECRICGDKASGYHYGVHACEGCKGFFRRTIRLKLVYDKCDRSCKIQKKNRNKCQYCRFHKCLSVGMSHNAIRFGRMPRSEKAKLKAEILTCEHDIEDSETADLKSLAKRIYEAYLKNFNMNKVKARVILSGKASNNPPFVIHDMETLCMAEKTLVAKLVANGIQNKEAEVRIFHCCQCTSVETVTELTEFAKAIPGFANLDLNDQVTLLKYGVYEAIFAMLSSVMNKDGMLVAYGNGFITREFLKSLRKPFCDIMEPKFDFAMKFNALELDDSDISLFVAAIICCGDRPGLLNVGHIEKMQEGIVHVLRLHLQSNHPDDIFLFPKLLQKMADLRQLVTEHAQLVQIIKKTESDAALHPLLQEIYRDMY
T1 sequence (P19793 1-462 partner): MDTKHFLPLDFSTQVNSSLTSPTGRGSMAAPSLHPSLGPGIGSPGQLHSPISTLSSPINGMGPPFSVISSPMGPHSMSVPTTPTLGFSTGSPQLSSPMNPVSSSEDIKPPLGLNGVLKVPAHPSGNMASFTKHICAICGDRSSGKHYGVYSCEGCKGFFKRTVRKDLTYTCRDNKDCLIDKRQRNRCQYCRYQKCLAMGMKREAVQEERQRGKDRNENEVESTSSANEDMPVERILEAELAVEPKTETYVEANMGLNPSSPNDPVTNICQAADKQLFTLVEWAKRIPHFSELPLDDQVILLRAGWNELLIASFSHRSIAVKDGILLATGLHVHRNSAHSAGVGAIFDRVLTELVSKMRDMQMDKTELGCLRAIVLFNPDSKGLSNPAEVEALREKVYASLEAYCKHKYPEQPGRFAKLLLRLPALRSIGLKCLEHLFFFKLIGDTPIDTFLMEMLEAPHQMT
In words: PPARα reporter gene assay (firefly luciferase, transiently transfected Cos-7 cells). It is filed as cell-based. The following applies: for Result (superior activity class achieved): class reached; for Pass at (lowest tested administration level at which the test material passed): pass = activation greater than oleic acid at 100 μM, commonly >1.57 times vehicle control, 24 h treatment. From the text:
One convenient reporter assay for determining whether a fatty acid material is PPARα activating is based upon the firefly luciferase gene.
Fatty acids were screened to identify PPAR activating fatty acids using a reporter assay.
This assay relied on ligands binding to and activating the PPARα protein, which, in turn, activated genes under the control of PPAR response elements (PPRE). In the assay, the firefly luciferase gene was cloned behind a promoter containing 3 copies of the fatty acid binding protein PPRE.
The assay was performed by transient transfection of Cos-7 cells with a mixture of four DNA plasmids. These were:
1) PPAR reporter gene construct (Modified pNF-KB-luc reporter vector (Firefly luciferase reporter vector commercially available form Clontech (NF-kB response element, TK minimal promoter, luc^+, f1 origin, pUC origin, amp^r)). A tandem repeat of 3 PPAR response elements (PPREs) corresponding to the PPRE found in the fatty acid binding protein promoter was inserted upstream of the minimal TK promoter to replace the NF-κB response element);
2) 2) Over-expressing PPARα construct (Modified pcDNA3.1(−) vector (A mammalian expression vector commercially available from Invitrogen (CMV promoter, f1 origin, SV40 origin, ColE1 origin, neo^r, amp^r)). The coding region of a human PPARα cDNA was inserted downstream of the CMV promoter of pcDNA3.1 (−)). […] The coding region of a human RXRα cDNA has been inserted downstream of the RSV promoter. (Gift of V. K. K. Chatterjee, Addenbrooke's Hospital, Cambridge)) 4) Control luciferase construct (pRL-TK Renilla luciferase reporter vector commercially available from Promega (HSV-TK promoter, T7 promoter, Rluc^+, ori, amp^r)). For the transfection, DNA was made up as a mix of PPAR reporter gene: PPARα: RXRα: control in the ratio 40:4:3:3.
Cos-7 cells were grown in Dulbecco's modified Eagle's Medium, also herein referred to as DMEM with 10% foetal calf serum, herein also referred to as FCS at 37° C., 5% CO2 to 80% confluency. Cells were then plated out in 24 well plates at 50,000 cells per well and incubated overnight in DMEM with 10% FCS at 37° C., 5% CO2. Cells were then transfected using the LipofectAMINE reagent (GibcoBRL). For each well 0.4 μg of DNA mix (in 25 μl of DMEM) was incubated with 1 μl LipofectAMINE (in 25 μl of DMEM) for 45 minutes. The mixture was then made up to 250 μl per well and added to the cells, which had been washed with 1 ml of DMEM. Cells were then incubated for 5 hours at 37° C., 5% CO2 and 250 μl DMEM with 10% SBCS (charcoal stripped bovine calf serum) added. Cells were incubated for 18 hours at 37° C., 5% CO2 before being treated with the appropriate compound/extract. Test compounds were made up as 1000× stocks (in DMSO or ethanol as appropriate) and diluted into DMEM with 10% SBCS (500 μl per well) immediately before being added to cells. Each treatment was performed in triplicate. The transfection mix was removed from the cells and replaced with the treatment mix, and incubated for 24 hours at 37° C., 5% CO2. Cells were washed with 1 ml of PBS (without calcium or magnesium) and then lysed with 100 μl per well of 1× Passive Lysis Buffer (as supplied with Promega Dual Luciferase assay kit). Lysis was allowed to continue for 15 minutes and then the lysate was assayed for Firefly and Renilla luciferase activity using the Promega Dual Luciferase assay kit. For the assay, 20 μl of lysate was taken and assayed as described in the kit instructions using a MLX microtiter™ plate luminometer (Dynex).
Firefly luciferase activity (PPAR driven) was normalised against the Renilla luciferase value for that well and the mean calculated for the three wells treated with the same agent. Activity was then expressed as fold activation over the vehicle (DMSO or ethanol) control values for that particular plate.
(In a reporter assay the amount or activity of a reporter protein is the signal.)

For the next experiment, the system named is interleukin-6 (IL-6). In words: Skin organotypic culture analysis: AP-induced IL-6 release into the medium. It is filed as cell-based. The following applies: for IL-6: 24 h, Nil 51.7, AP 118.8. As for the experimental part:
The cultures were then incubated at 37° C., 5% CO2, and 95% relative humidity (standard cell culture conditions) for 24 h. The culture medium was assayed for the pro-inflammatory cytokine interleukin-6 (IL-6) and after washing to remove the AP formulation, the viability of the culture was determined using the Thiazoyl blue (MTT) assay (Mosmann, T. J. Immunol. Methods 65, p55 (1983). IL-6 was determined using an Immunoassay (Quantikine, R&D systems).
In this Example, skin organotypic cultures (Epiderm™, MatTek, USA) were treated topically with the above-identified AP formulation and the trans-10-cis-12 conjugated linoleic acid (TC CLA) was introduced into the medium. The cultures were then incubated at 37° C., 5% CO2, and 95% relative humidity (standard cell culture conditions) for 24 h. The culture medium was assayed for the pro-inflammatory cytokine interleukin-6 (IL-6) and after washing to remove the AP formulation, the viability of the culture was determined by the method described in Example 2.
The cultures were then incubated at 37° C., 5% CO2, and 95% relative humidity (standard cell culture conditions) for 24 hours. The culture medium was assayed for the pro-inflammatory cytokine interleukin-6 (IL-6) and after washing to remove the AP formulation, the viability of the culture was determined using the MTT assay. IL-6 was determined using an ELISA assay (R&D systems).

As for `CCC=CCC=CC/C=C\CCCCCCCCCC(=O)O` [cis-11,14,17 eicosatrienoic acid], at human PPARα, the “Result at (lowest administration level at which super or MS activity was achieved)” value came out at 100 μm, the “Result (superior activity class achieved)” value was “MS (more superior activity [MS] (100% higher—at least 3 times PPARα activation))” and the “Pass at (lowest tested administration level at which the test material passed)” value (shortened to “Pass”) was found to be 100 μm.

With `CCC=CCC=CC/C=C\CCCCCCCCCCCC(=O)O` [cis-13,16,19 docosatrienoic acid], the “Pass” value on human PPARα is reported as 100 μm.

With `CCCCCC[C@@H](O)C/C=C/CCCCCCCC(=O)O` [Ricinolaidic acid, ricinolaidic acid], on human PPARα, the “Result at (lowest administration level at which super or MS activity was achieved)” value was 25 μm, the “Result (superior activity class achieved)” value is “MS (more superior activity [MS] (100% higher—at least 3 times PPARα activation))” and the “Pass” value was found to be 10 μm.

With `CC/C=C/C/C=C/C/C=C/CCCCCCCC(=O)O` [Linolenelaidic acid, linolenelaidic acid], at human PPARα, the “Result at (lowest administration level at which super or MS activity was achieved)” value was found to be 25 μm, the “Result (superior activity class achieved)” value was “super (superior activity [super] (50% higher—at least 2.25 times PPARα activation))” and the “Pass” value turned out to be 25 μm.

In the case of `CCCCC/C=C\C/C=C\C/C=C\C/C=C\CCCC(=O)O` [Arachidonic acid], the “Pass” value on human PPARα worked out at 25 μm.

For the compound `CCCCCC=CCC=CC/C=C\CCCCCCC(=O)O` [cis-8,11,14 eicosatrienoic acid], at human PPARα, the “Result at (lowest administration level at which super or MS activity was achieved)” value came out at 100 μm, the “Result (superior activity class achieved)” value is “super (superior activity [super] (50% higher—at least 2.25 times PPARα activation))” and the “Pass” value stood at 100 μm.

On to `CCCCC/C=C\C=C\CCCCCCCCC(=O)O` [CLA (t10, c12), trans-10-cis-12 conjugated linoleic acid], for which, in the experiment on interleukin-6 (IL-6) (5 and 500 μM, Dunnet's test p<0.01), the “AP-induced IL-6 release” value is “significantly decrease”. In addition, the IL-6 in the experiment with interleukin-6 (IL-6) (Table 5: 5 μM in medium + AP) worked out at 59.6 pg/mL. Besides, the IL-6 with interleukin-6 (IL-6) (Table 5: 500 μM in medium + AP) worked out at 57.1 pg/mL. On human PPARα, the “Result at (lowest administration level at which super or MS activity was achieved)” value turned out to be 100 μm, the “Result (superior activity class achieved)” value is “super (superior activity [super] (50% higher—at least 2.25 times PPARα activation))” and the “Pass” value is reported as 50 μm.

As for `CCCCCCCC/C=C\CCCCCCCCCC(=O)O` [cis-11 eicosenoic acid], at human PPARα, the “Pass” value is listed as 100 μm.

With `CCCC\C=C/C=C/C=C\CCCCCCCC(=O)O` [Punicic acid, punicic acid], the “Pass” value at human PPARα came to 25 μm.
